The target in one assay is T1, PLA2G16 (Homo sapiens, UniProt P53816).
T1 construct: Hexa-His (N); made in house; host or cells: E. coli BL21(DE3)
T1 sequence (P53816 1-162): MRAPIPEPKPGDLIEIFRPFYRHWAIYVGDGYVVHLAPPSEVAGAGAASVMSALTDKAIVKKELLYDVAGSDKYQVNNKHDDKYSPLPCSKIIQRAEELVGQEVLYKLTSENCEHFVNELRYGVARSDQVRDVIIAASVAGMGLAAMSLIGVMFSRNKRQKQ
Put plainly: Enzyme activity assay for PLA2G16 (Red/Green BODIPY PC-A2 fluorescence). The assay is classed as biochemical. The note with it: His-tagged PLA2G16, 4 min pre-incubation, 2 nM to 50 μM; read-out: IC50 values of the compounds determined in the enzyme activity assay for PLA2G16. Summed up:
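N-His-tagged human PLA2G16 from E. coli, Ni-NTA purified. Pre-incubated 4 min with compound (2 nM–50 μM final) in pH 8.5 Tris/NaCl buffer with 5 mM glutathione, then BODIPY PC-A2 in DOPC/DOPG/cholesterol vesicles added. Fluorescence (ex 480/em 530 nm) increase over 10 min taken as activity; IC50 by non-linear regression.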

In assay [1] the test system is picornaviruses (CVB1, HRV-A2, HRV-A23, EV-68). Kind of assay: Anti-picornavirus cytopathic effect (CPE) reduction assay on HeLa H1 cells. The assay is classed as cell-based. Conditions: Enterovirus B, HeLa H1, 48 h. A digest of the protocol:
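HeLa H1 cells pre-treated 2 h with serially diluted compound in DMEM/2% FBS, then infected at an MOI giving full CPE in 2 days. After 48 h at 37° C, viability read by CellTiterBlue fluorescence (ex 560/em 590 nm), normalised to infected and uninfected vehicle controls; EC50 by non-linear regression, category from mean of four viruses.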

The mark [2] stands for this setting: HeLa H1 cells, 48 h, category from averaging the EC50 values from four picornaviruses (CVB1, HRV-A2, HRV-A23, EV68), read-out: EC50 values of the compounds determined in the anti-picornavirus assay.

Molecules are shown by their SMILES. Where two headings read alike, the source gives them in different places. Some results are limits rather than exact numbers.

In the case of `COc1ccccc1N(C=O)C(C)C(=O)C(=O)NCc1cnccn1` (stereo not shown) [FP 104, 3-[N-(2-Methoxyphenyl)formamido]-2-oxo-N-[(pyrazin-2-yl)methyl]butanamide], the IC50 at PLA2G16 lay within 1 to 10 µM. Further, in assay [1] (setting [2]), the EC50 is above 10 µM.

Turning to `O=C(NCCc1cnccn1)C(=O)C1CCC(=O)N1Cc1ccccc1` (stereo not shown) [FP 227, 2-(1-Benzyl-5-oxopyrrolidin-2-yl)-2-oxo-N-[2-(pyrazin-2-yl)ethyl]acetamide], on PLA2G16, the IC50 is below 1 µM. In addition, in assay [1] (setting [2]), the EC50 was 1 to 10 µM.

As for `O=CN(Cc1ccccc1)[C@@H](Cc1cn(C(c2ccccc2)(c2ccccc2)c2ccccc2)cn1)C(=O)C(=O)NCC1CCCCC1` [FP 116, (3S)-3-(N-Benzylformamido)-N-(cyclohexylmethyl)-2-oxo-4-[1-(triphenylmethyl)-1H-imidazol-4-yl]butanamide], at PLA2G16, the IC50 was below 1 µM. In assay [1] (setting [2]), the EC50 was below 1 µM.

Turning to `CCCC(NS(=O)(=O)c1ccccc1)C(=O)C(=O)NCC1CC1` (stereo not shown) [FP 217, 3-Benzenesulfonamido-N-(cyclopropylmethyl)-2-oxohexanamide], at PLA2G16, the IC50 was below 1 µM. In assay [1] (setting [2]), the EC50 fell in the range of 1 to 10 µM.

Take `CCNC(=O)C(=O)C1CCC(=O)N1Cc1ccc(C)s1` (stereo not shown) [FP 278, N-Ethyl-2-{1-[(5-methylthiophen-2-yl)methyl]-5-oxopyrrolidin-2-yl}-2-oxoacetamide]: the IC50 on PLA2G16 is below 1 µM. Further, the concentration for a half-maximal effect (EC50) in assay [1] (setting [2]) fell in the range of 1 to 10 µM.

In the case of `CNC(=O)C(=O)C(C(C)C)N(C=O)Cc1ccccc1` (stereo not shown) [FP 197, 3-(N-Benzylformamido)-N,4-dimethyl-2-oxopentanamide], on PLA2G16, the IC50 is below 1 µM. Besides, the EC50 in assay [1] (setting [2]) is above 10 µM.

In the case of `CC(C(=O)C(=O)NCCC1CCOCC1)N(C=O)C1CCCCC1` (stereo not shown) [FP 112, 3-(N-Cyclohexylformamido)-N-[2-(oxan-4-yl)ethyl]-2-oxobutanamide], the IC50 on PLA2G16 is below 1 µM. Also, in assay [1] (setting [2]), the EC50 was 1 to 10 µM.

For `CC(C(=O)C(=O)NC1CC1)N(C=O)C1CCCCC1` (stereo not shown) [FP 42, 3-(N-Cyclohexylformamido)-N-cyclopropyl-2-oxobutanamide], the IC50 on PLA2G16 is below 1 µM. Further, the EC50 in assay [1] (setting [2]) was in the range of 1 to 10 µM.

`CC(NC(=O)Cc1ccccc1)C(=O)C(=O)NCC1CC1` (stereo not shown) [FP 167, N-(Cyclopropylmethyl)-2-oxo-3-(2-phenylacetamido)butanamide]: the IC50 at PLA2G16 is below 1 µM. The EC50 in assay [1] (setting [2]) was above 10 µM.

As to `O=C(NC1CCN(S(=O)(=O)C2CC2)CC1)C(=O)[C@H]1CCC(=O)N1Cc1ccccc1` [FP 320, 2-[(2R)-1-Benzyl-5-oxopyrrolidin-2-yl]-N-[1-(cyclopropanesulfonyl)piperidin-4-yl]-2-oxoacetamide], the IC50 at PLA2G16 was below 1 µM. Further, the EC50 in assay [1] (setting [2]) is below 1 µM.

With `O=C(NC1CCN(C(=O)NC2CCCC2)CC1)C(=O)[C@H]1CCC(=O)N1Cc1ccccc1` [FP 325, 4-{2-[(2R)-1-Benzyl-5-oxopyrrolidin-2-yl]-2-oxoacetamido}-N-cyclopentylpiperidine-1-carboxamide], the IC50 on PLA2G16 is below 1 µM. Further, the EC50 in assay [1] (setting [2]) was below 1 µM.

For `O=CN(Cc1ccccc1)[C@@H](Cc1cn(C(c2ccccc2)(c2ccccc2)c2ccccc2)cn1)C(=O)C(=O)NCC1CC1` [FP 117, (3S)-3-(N-Benzylformamido)-N-(cyclopropylmethyl)-2-oxo-4-[1-(triphenylmethyl)-1H-imidazol-4-yl]butanamide], the IC50 on PLA2G16 was below 1 µM. Besides, in assay [1] (setting [2]), the EC50 is below 1 µM.

On to `NC(=O)c1cccc(CN2C(=O)CCC2C(=O)C(=O)NCC2CCCCC2)c1` (stereo not shown) [FP 249, 3-[(2-{[(Cyclohexylmethyl)carbamoyl]carbonyl}-5-oxopyrrolidin-1-yl)methyl]benzamide], for which the IC50 on PLA2G16 was below 1 µM. Also, the EC50 in assay [1] (read-out: EC50 values of the compounds determined in the anti-picornavirus assay, HeLa H1 cells, 48 h, category from averaging the EC50 values from four picornaviruses (CVB1, HRV-A2, HRV-A23, EV68)) was below 1 µM.

Regarding `CC(C(=O)C(=O)NCC1CC1)N(C=O)CC1CCCCC1` (stereo not shown) [FP 38, 3-[N-(Cyclohexylmethyl)formamido]-N-(cyclopropylmethyl)-2-oxobutanamide], the IC50 on PLA2G16 is below 1 µM. Further, the EC50 in assay [1] (setting [2]) is below 1 µM.

Take `O=C(NCC1CC1)C(=O)C1CCC(=O)N1Cc1ccc(F)cc1` (stereo not shown) [FP 241, N-(Cyclopropylmethyl)-2-{1-[(4-fluorophenyl)methyl]-5-oxopyrrolidin-2-yl}-2-oxoacetamide]: on PLA2G16, the IC50 was below 1 µM. Moreover, the concentration giving a half-maximal response (EC50) in assay [1] (setting [2]) is below 1 µM.

Consider `O=C(NCCF)C(=O)[C@H]1CCC(=O)N1Cc1ccccc1` [FP 282, 2-[(2R)-1-Benzyl-5-oxopyrrolidin-2-yl]-N-(2-fluoroethyl)-2-oxoacetamide], for which the IC50 on PLA2G16 was below 1 µM. In addition, the EC50 in assay [1] (setting [2]) is below 1 µM.

Consider `CC(C)C(NC(=O)c1ccccc1)C(=O)C(=O)NCC1CC1` (stereo not shown) [FP 165, N-(Cyclopropylmethyl)-4-methyl-2-oxo-3-(phenylformamido)pentanamide], for which, on PLA2G16, the IC50 is below 1 µM. Moreover, in assay [1] (setting [2]), the EC50 was above 10 µM.

Consider `CC(C(=O)C(=O)NCC(F)F)N(C=O)C1CCCCC1` (stereo not shown) [FP 111, 3-(N-Cyclohexylformamido)-N-(2,2-difluoroethyl)-2-oxobutanamide], for which, at PLA2G16, the concentration for half-maximal inhibition (IC50) is below 1 µM. In addition, the EC50 in assay [1] (setting [2]) is above 10 µM.

Turning to `COC(=O)N(CC1CCOCC1)C(C)C(=O)C(=O)NCC(C)C` (stereo not shown) [FP 152, Methyl N-{1-[(2-methylpropyl)carbamoyl]-1-oxopropan-2-yl}-N-[(oxan-4-yl)methyl]carbamate], the 50% inhibitory concentration (IC50) at PLA2G16 lay in the range of 1 to 10 µM. The EC50 in assay [1] (setting [2]) is above 10 µM.

Take `CC(NS(=O)(=O)c1ccccc1)C(=O)C(=O)NCC1CCCCC1` (stereo not shown) [FP 218, 3-Benzenesulfonamido-N-(cyclohexylmethyl)-2-oxobutanamide]: on PLA2G16, the IC50 is below 1 µM. Besides, the EC50 in assay [1] (setting [2]) lay within 1 to 10 µM.

Regarding `Cc1ccc(CN2C(=O)CCC2C(=O)C(=O)NC2CC2)s1` (stereo not shown) [FP 277, N-Cyclopropyl-2-{1-[(5-methylthiophen-2-yl)methyl]-5-oxopyrrolidin-2-yl}-2-oxoacetamide], the IC50 at PLA2G16 is below 1 µM. The EC50 in assay [1] (setting [2]) was in the range of 1 to 10 µM.

As to `CC(C)NC(=O)C(=O)[C@H]1CCC(=O)N1Cc1ccccc1` [FP 238, 2-[(2R)-1-Benzyl-5-oxopyrrolidin-2-yl]-2-oxo-N-(propan-2-yl)acetamide], the IC50 on PLA2G16 was below 1 µM. Also, the EC50 in assay [1] (setting [2]) is below 1 µM.

For `CC(C)C(=O)N1CCC(CN(C=O)C(C)C(=O)C(=O)NCC2CCCCC2)CC1` (stereo not shown) [FP 78, N-(Cyclohexylmethyl)-3-(AN{[1-(2-methylpropanoyl)piperidin-4-yl]methyl}formamido)-2-oxobutanamide], the half-inhibitory concentration (IC50) on PLA2G16 lay within 1 to 10 µM. Besides, the EC50 in assay [1] (setting [2]) was above 10 µM.

`CC(C)(C)C(=O)N1CCC(NC(=O)C(=O)[C@H]2CCC(=O)N2Cc2ccccc2)CC1` [FP 314, 2-[(2R)-1-Benzyl-5-oxopyrrolidin-2-yl]-N-[1-(2,2-dimethylpropanoyl)piperidin-4-yl]-2-oxoacetamide]: the IC50 at PLA2G16 was below 1 µM. For the same molecule, the EC50 in assay [1] (setting [2]) lay within 1 to 10 µM.

For the molecule `O=CN(Cc1ccccc1)C(C(=O)C(=O)NCC1CC1)C1CCOCC1` (stereo not shown) [FP 71, 3-(N-Benzylformamido)-N-(cyclopropylmethyl)-3-(oxan-4-yl)-2-oxopropanamide], the IC50 on PLA2G16 was below 1 µM. Moreover, the EC50 in assay [1] (setting [2]) was 1 to 10 µM.

For `CC(NC(=O)C1CC(F)(F)C1)C(=O)C(=O)NCC1CC1` (stereo not shown) [FP 174, N-(Cyclopropylmethyl)-3-[(3,3-difluorocyclobutyl)formamido]-2-oxobutanamide], the IC50 at PLA2G16 fell in the range of 1 to 10 µM. For the same molecule, the EC50 in assay [1] (setting [2]) is above 10 µM.

As to `CC(NC(=O)c1ccccc1Br)C(=O)C(=O)NCC1CC1` (stereo not shown) [FP 166, 3-[(2-Bromophenyl)formamido]-N-(cyclopropylmethyl)-2-oxobutanamide], the IC50 at PLA2G16 is below 1 µM. Moreover, the EC50 in assay [1] (setting [2]) was 1 to 10 µM.

On to `COc1ccccc1N(C=O)C(C)C(=O)C(=O)NC(C)(C)C` (stereo not shown) [FP 75, N-tert-Butyl-3-[N-(2-methoxyphenyl)formamido]-2-oxobutanamide], for which, at PLA2G16, the IC50 was below 1 µM. In addition, the EC50 in assay [1] (setting [2]) was 1 to 10 µM.

For `C[C@H](CO)NC(=O)C(=O)C1CCC(=O)N1Cc1ccc(Cl)cc1` (stereo partly drawn) [FP 258, 2-{1-[(4-Chlorophenyl)methyl]-5-oxopyrrolidin-2-yl}-N-[(2R)-1-hydroxypropan-2-yl]-2-oxoacetamide], on PLA2G16, the IC50 lay in the range of 1 to 10 µM. In assay [1] (setting [2]), the EC50 lay within 1 to 10 µM.

As for `CCCC(NC(=O)c1ccccc1)C(=O)C(=O)NC1CC1` (stereo not shown) [FP 184, N-Cyclopropyl-2-oxo-3-(phenylformamido)hexanamide], the IC50 on PLA2G16 was below 1 µM. Further, the EC50 in assay [1] (setting [2]) is above 10 µM.

For `CC(C)S(=O)(=O)N1CCC(NC(=O)C(=O)[C@H]2CCC(=O)N2Cc2ccccc2)CC1` [FP 323, 2-[(2R)-1-Benzyl-5-oxopyrrolidin-2-yl]-2-oxo-N-[1-(propane-2-sulfonyl)piperidin-4-yl]acetamide], at PLA2G16, the IC50 is below 1 µM. Further, in assay [1] (setting [2]), the EC50 is below 1 µM.

Take `CC(F)(F)CNC(=O)C(=O)[C@H]1CCC(=O)N1Cc1ccccc1` [FP 295, 2-[(2R)-1-Benzyl-5-oxopyrrolidin-2-yl]-N-(2,2-difluoropropyl)-2-oxoacetamide]: the IC50 on PLA2G16 is below 1 µM. Also, in assay [1] (setting [2]), the 50% effective concentration (EC50) is below 1 µM.

Values taken from US11091428B2 (HAPLOGEN GMBH, priority 2016, dated 2021).
